Test system: CD8+ and CD4+ T cells (autologous CD3+ Pan-T cells isolated from human normal PBMCs)
Assay: Exogenous autologous normal donor restimulation assay (15-mer overlapping peptide pools on CD1c+ dendritic cells, TNFα/IFNγ flow cytometry)
Assay type: cell-based
Conditions: 15-mer overlapping peptide pool; for Maximum Fold Change Over Background CD4+ cells / Maximum Fold Change Over Background CD8+ cells / Maximum Frequency of TNFα/IFNγ Double Positive CD4+ T cells / Maximum Frequency of TNFα/IFNγ Double Positive CD8+ T cells: Table 25; for Maximum Fold Change Over Background CD4+ cells: TNFα+IFNγ+ CD4+ T cells; for Maximum Fold Change Over Background CD4+ cells / Maximum Fold Change Over Background CD8+ cells: highest fold change over negative control across normal donors; for Maximum Fold Change Over Background CD8+ cells: TNFα+IFNγ+ CD8+ T cells; for Maximum Frequency of TNFα/IFNγ Double Positive CD4+ T cells / Maximum Frequency of TNFα/IFNγ Double Positive CD8+ T cells: highest frequency across normal donors; for Max. Fold Change over background CD4+ TNFαINFγ double positive DP / Max. Fold Change over background CD8+ TNFαINFγ double positive DP / Max. Frequency of CD4+ TNFαINFγ DP / Max. Frequency of CD8+ TNFαINFγ DP: Table 28, additional neoantigens, highest across normal donors
Method: CD1c+ Dendritic Cells (DC) isolated from human normal PBMCs were thawed using media (IMDM (Gibco) supplemented with glutamine, HEPES, 5% human serum (Sigma), and 1× Pen-Strep). DC cells were resuspended in media supplemented with IL-4 (Peprotech, 80 ng/mL) and GM-CSF (Gibco, 80 ng/mL), plated in 6 well microplates, and rested overnight at 37° C. (5% CO2). The following day, DC cells were counted and plated in a 96 well round bottom microplate at a concentration of 30,000 viable cells per well. Lyophilized peptides (15-mer overlapping peptides) were solubilized in 100% DMSO and pooled by neoantigen to between 5 mg/mL and 20 mg/mL. Neoantigen peptides pools were added to DCs for a final concentration of […] and rested for 2 hours at 37° C. (5% CO2). CEF Peptide Pool “Plus” (Cellular Technologies, Ltd.) was utilized as a positive control and DMSO at the same final concentration as the experimental peptides was utilized as a negative control. After 2 hours, DC cells were irradiated with 50 gray of ionizing radiation. Autologous CD3+ Pan-T cells isolated from human normal PBMCs were thawed using media. Following irradiation, autologous Pan-T cells were added to the irradiated DCs at 300,000 viable cells per well. Human IL-15 (Peprotech) was added to all wells at final concentration of 10 ng/mL.
Plates were incubated at 37° C. (5% CO2) for a total of 12 days. Media was refreshed every 2-3 days with IL-15 (10 ng/mL final concentration) and IL-2 (R&D systems, 10 IU/mL final concentration). On day 11 cells were re-stimulated with identical experimental peptide pools or controls, at same concentration as peptide stimulation on Day 1. Protein Inhibitor Cocktail (eBioscience) was added to every well and plate was incubated overnight at 37° C. (5% CO2).
On day 12, cells were stained for intracellular flow cytometry analysis. The cells were washed with PBS and stained with Live/Dead Fixable Aqua Dead Cell stain (Thermo-Fisher). Following the live/dead stain, cells were blocked using Biotin-Free Fc Receptor Blocker (Accurate Chemical & Scientific Corp). Extracellular cellular flow panel (1 μL/antibody per well in 50 μL) consisted of CD3 PerCP-Cy5.5 (Biolegend), CD4 BV421 (Biolegend), and CD8 APC-Cy7 (Biolegend). After extracellular staining, cells were fixed using Foxp3/fTranscription Factor Staining Buffer Set (eBioscience) and stained for intracellular proteins (1:50 dilution) using TNFα FITC (R&D Systems) and IFNγ BV785 (Biolegend). Cells were washed and resuspended in stain buffer and analyzed using a BD Celesta flow cytometer.
Flow cytometry cell staining analysis was completed using FlowJo v10. Cells were gated on live, singlet, CD3+ cells. The CD8+ and CD4+ T cells were analyzed for TNFα/IFNγ expression and the frequency of double positive TNFα/IFNγ CD8+ and the frequency of double positive TNFα/IFNγ CD4+ T cells were recorded. Responses were assessed to be positive when the frequency of double positive TNFα/IFNγ CD8+ or TNFα/IFNγ CD4+ T cells due to stimulation with an experimental peptide pool was increased greater than or equal to 3-fold over the DMSO only negative control for that donor and at least 0.01%.
(§1) Overlapping 15-mer peptides were designed to span each neoantigen incorporated into NeoGAd20 and NeoMVA to assess their ability to activate T cells using the exogenous autologous normal donor restimulation assay described in Example 1 as pools using TNFα and IFNγ production by CD8^+ and CD4^+ T cells as a readout.
as §1, with “Immunogenicity of various additional identified neoantigens was assessed. Overlapping” for “Overlapping”, “similarly to what was done in Example 11” for “incorporated into NeoGAd20 and NeoMVA”

Row | Substance | Maximum Fold Change Over Background CD4+ cells | Maximum Fold Change Over Background CD8+ cells | Maximum Frequency of TNFα/IFNγ Double Positive CD4+ T cells | Maximum Frequency of TNFα/IFNγ Double Positive CD8+ T cells | Max. Fold Change over background CD4+ TNFαINFγ double positive DP | Max. Fold Change over background CD8+ TNFαINFγ double positive DP | Max. Frequency of CD4+ TNFαINFγ DP | Max. Frequency of CD8+ TNFαINFγ DP
1 | HVVGYGHLDTSGSSSSSSWP (listed as Homo sapiens) [FUS15, D2HGDH->GAL3ST2 gene fusion] | 2.79 | 1.75 | 0.039 | 0.028 | – | – | – | –
2 | IARELHQFAFDLLIKSH (listed as Homo sapiens) [Neoantigen M84, AR T878A] | 35.84 | 1.39 | 0.31 | 0.03 | – | – | – | –
3 | IIDSDKIMAVCMGCLLTRHVQCQAMEMQQ (listed as Homo sapiens) [AS54, ABCC4 alternative splicing] | – | – | – | – | 17.87 | 88.15 | 0.18 | 8.33
4 | KENDVREVCDVYLQMQIFFHFKFRSYFH (listed as Homo sapiens) [AS10, CHRNA5 alternative splicing] | – | – | – | – | 3.97 | 4.33 | 0.23 | 0.08
5 | KEQILAVASLVSSQSIHPSWGQSPLSRI (listed as Homo sapiens) [FUS9, AP5S1->MAVS gene fusion] | – | – | – | – | 203.97 | 1.82 | 0.77 | 0.07
6 | KIQNKNCPD (listed as Homo sapiens) [AS23, ZNF614 alternative splicing] | 5.08 | 3.24 | 0.01 | 0.07 | – | – | – | –
7 | KMHFSLKEHPPPPCPP (listed as Homo sapiens) [FUS19, GTF2F1->PSPN gene fusion] | 3.15 | 1.88 | 0.013 | 0.030 | – | – | – | –
8 | KRSFAVTERII (listed as Homo sapiens) [AS13, GRIN3A alternative splicing] | 1.96 | 1.67 | 0.05 | 0.10 | – | – | – | –
9 | KVLNEIDAVVTVPPSLSTSQIPQGCCIIL (listed as Homo sapiens) [AS20, PFKFB4 alternative splicing] | – | – | – | – | 1.36 | 3.81 | 0.05 | 0.12
10 | KWNKNWTATLGALTIRGHKLLCHLPHLLSSVQQTCRSSSR (listed as Homo sapiens) [AS46, SERINC5 alternative splicing] | – | – | – | – | 157.98 | 11.6 | 0.29 | 0.87
11 | LELELSEGVCFRLR (listed as Homo sapiens) [FUS10, DIP2A->DIP2A-IT1 gene fusion] | – | – | – | – | 10.86 | 2.42 | 0.04 | 0.09
12 | LQERMELLACGAERGAGGWGGGGGGGGGDRRGGGGSAPALADFAGGRG (listed as Homo sapiens) [FUS24, DMPK->SIX5 gene fusion] | – | – | – | – | 4.4 | 8.53 | 0.05 | 0.64
13 | LTFLDFIQVTLRVMSGSQMENGSSYFFKPFSWGLGVGLSAWLCVMLT (listed as Homo sapiens) [AS1, ABCC4 alternative splicing] | – | – | – | – | 3.57 | 8.15 | 0.02 | 0.11
14 | LVLGVLSGHSGSRL (listed as Homo sapiens) [AS8, CACNA1D alternative splicing] | 4.08 | 54.55 | 0.049 | 0.600 | – | – | – | –
15 | MFLRKEQQVGPHSFSML (listed as Homo sapiens) [AS14, IQCG alternative splicing] | – | – | – | – | 1.49 | 3.81 | 0.06 | 0.12
16 | MS2 (TDIVKQSV; listed as Homo sapiens) | – | – | – | – | 15.12 | 36.92 | 0.1 | 0.48
17 | MS4 (SYFSLTNIFNFV; listed as Homo sapiens) | – | – | – | – | 367.35 | 24.13 | 2.43 | 0.76
18 | MS5 (EFSPETCAFRLS; listed as Homo sapiens) | – | – | – | – | 126.05 | 32.89 | 0.2 | 1.95
19 | MS7 (KKDLELIL; listed as Homo sapiens) | – | – | – | – | 10.52 | 6.67 | 0.09 | 0.12
20 | MS9 (SALSGNSWV; listed as Homo sapiens) | – | – | – | – | 455.63 | 1.38 | 1.72 | 0.1
21 | MS10 (TVRAILL; listed as Homo sapiens) | – | – | – | – | 74.17 | 3.42 | 0.28 | 0.13
22 | MS11 (GSLHFHEVLK; listed as Homo sapiens) | – | – | – | – | 3.4 | 3.81 | 0.13 | 0.12
23 | NSKMALNSEALSVVSE (listed as Homo sapiens) [FUS5, TMPRSS2->ERG gene fusion] | 3.43 | 32.50 | 0.048 | 0.390 | – | – | – | –
24 | P27 (LHPQRETFTPRWSGANYWKLAFPVGAEGTFPAAATQRGVVRPA; listed as Homo sapiens) [Neoantigen P27] | – | – | – | – | 45.38 | 7.87 | 0.05 | 0.59
